Experiments:
human URAT1 = biological target: T1, human URAT1 (Homo sapiens, UniProt Q96S37); assay: In vitro URAT1 inhibitory assay (14C-uric acid uptake in HEK293T cells expressing human URAT1); assay type: cell-based; settings: HEK293-URAT1 cells, 14C-labeled uric acid substrate; for inhibition at 10 µM: HEK-293T, 10 μM compound, mean of three measurements
T1 construct: expressed in transfected cells; host or cells: HEK293T cells (ATCC CRL-11268)
T1 sequence (Q96S37 1-553): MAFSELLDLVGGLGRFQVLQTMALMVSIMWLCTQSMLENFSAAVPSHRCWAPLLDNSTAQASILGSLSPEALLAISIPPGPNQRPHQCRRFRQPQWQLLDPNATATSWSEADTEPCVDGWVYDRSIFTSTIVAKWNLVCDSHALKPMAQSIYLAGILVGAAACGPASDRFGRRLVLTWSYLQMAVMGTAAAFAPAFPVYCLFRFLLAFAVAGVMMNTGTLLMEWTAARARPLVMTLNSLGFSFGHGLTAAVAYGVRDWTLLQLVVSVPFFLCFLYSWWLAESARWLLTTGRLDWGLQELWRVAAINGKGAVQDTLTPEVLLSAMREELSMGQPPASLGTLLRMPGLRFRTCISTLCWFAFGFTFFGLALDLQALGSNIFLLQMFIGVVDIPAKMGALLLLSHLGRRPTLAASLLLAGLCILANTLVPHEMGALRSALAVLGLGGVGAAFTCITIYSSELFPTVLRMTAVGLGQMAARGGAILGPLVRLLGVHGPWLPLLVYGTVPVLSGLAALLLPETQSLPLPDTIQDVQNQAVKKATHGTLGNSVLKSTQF
Experimental: All the target compounds were evaluated for their URAT1 inhibitory activities in HEK293-URAT1 cells using ^14C-labeled uric acid as the substrate. […] The SAR exploration on series A compounds mainly focused on the hydrophobic component. […] For series B compounds, the ortho-substituted biphenyl carboxylic acid was initially kept, and various aromatic components were incorporated (B1–B25). […] Different substituents were introduced onto the 4-pyridyl (B15–B21).
In Vitro URAT1 Inhibitory Assay. A transient expression system of human URAT1 in HEK293T cells was constructed to measure ^14C-uric acid transport. […] The cell cryovials were removed from liquid nitrogen storage, and immediately placed on dry ice prior to thawing. […] The cell suspension was transferred into a 15 mL centrifuge tube, and 10 mL complete medium (DMEM +10% FBS +500 μg/mL G418 +1% P/S) was added. After centrifugation at 1000 rpm for 5 min, the supernatant was discarded, and cell precipitation was resuspended in 5 mL complete medium and transferred to a T75 culture flask. […] The uptake assay test could be carried out after cell culture adherent to the well in the 96-well plate. Then, the cells were washed with 200 µL/well of pre-warmed Cl^- free HBSS buffer, and all buffer was removed at the last washing. 50 µL/well of Cl^- free HBSS Buffer containing Uric acid [8-^14C] (2.5 μCi/mL) and samples were added to the cells, and incubated for 8 min. Then, the cells were washed three times with Cl^- free HBSS Buffer and all buffer was removed at the last washing. 50 µL/well of lysis buffer (100 mM NaOH) was added to the lysate cells and stirred at 900 rpm for 5 min. 150 µL/well MicroScint™-40 cocktail was added and agitated at 900 rpm for 5 min. Finally, the 96-plate was counted in a MicroBeta2 (PerkinElmer). The data were analyzed and IC50 values was calculated with GraphPad Prism 6 software.

inhibition at 10 µM (human URAT1)	melting point	IC50 (human URAT1)	Structure (SMILES)
58%	177 to 179 °C		COc1cccc(-c2ccc3c(c2)N(C(=O)c2ccccc2-c2ccccc2C(=O)O)CCC3)c1 [Compound A14]
69%	146 to 148 °C		O=C(O)c1ccccc1-c1ccccc1-c1nc(-c2ccsc2)no1 [Compound B10]
24%	176 to 178 °C		O=C(O)c1ccccc1-c1ccccc1C(=O)Nc1ccnc2ccccc12 [Compound A19]
86%	266 to 268 °C	1500 nM	O=C(O)c1ccccc1-c1ccccc1C(=O)N1CCCc2ccc(-c3ccncc3)cc21 [Compound A13]
84%	231 to 233 °C	1100 nM	O=C(O)c1ccccc1-c1ccccc1C(=O)N1CCCc2ccc(Br)cc21 [Compound A6]
44%	119 to 121 °C		O=C(O)c1ccccc1-c1ccccc1-c1nc(-c2cccc(Br)c2)no1 [Compound B7]
45%	151 to 153 °C		Cc1ccc(-c2noc(-c3ccccc3-c3ccccc3C(=O)O)n2)cc1 [Compound B6]
78%	193 to 195 °C		O=C(O)c1ccccc1-c1ccccc1C(=O)N1CCSc2ccccc21 [Compound A3]
90%	201 to 202 °C	1600 nM	O=C(O)c1ccccc1-c1ccccc1C(=O)N1CCCc2c(Br)cccc21 [Compound A8]
94%	261 to 262 °C	1100 nM	O=C(O)c1ccccc1-c1ccccc1C(=O)N1CCCc2cc(Br)ccc21 [Compound A7]
35%	240 to 242 °C		O=C(O)CCNC(=O)c1ccccc1-c1ccccc1-c1nc(-c2ccncc2Cl)no1 [Compound B26]
29%	288 to 289 °C		O=C(O)c1cccc(-c2ccccc2-c2nc(-c3ccncc3)no2)c1 [Compound B28]
77%	195 to 196 °C	4700 nM	O=C(O)c1ccccc1-c1ccccc1C(=O)N1CCc2ccccc21 [Compound A4]
30%	167 to 169 °C		O=C(O)c1ccccc1-c1ccccc1-c1nc(-c2ccncn2)no1 [Compound B11]
88%	198 to 200 °C	1800 nM	COc1ccc2c(c1)CCCN2C(=O)c1ccccc1-c1ccccc1C(=O)O [Compound A10]
97%	228 to 230 °C	280 nM	Cc1cc(-c2noc(-c3ccccc3-c3ccccc3C(=O)O)n2)ccn1 [Compound B18]
64%	210 to 212 °C		O=C(O)c1ccccc1-c1ccccc1-c1nc(-c2cccnc2)no1 [Compound B13]
97%	145 to 147 °C	270 nM	O=C(O)c1ccccc1-c1ccccc1-c1nc(-c2ccnc(Cl)c2)no1 [Compound B16]
29%	245 to 246 °C		O=C(O)c1ccccc1-c1ccccc1C(=O)N1CCCc2ccc(-c3ccc(F)cc3)cc21 [Compound A12]
25%	171 to 173 °C		O=C(O)c1ccccc1-c1ccccc1C(=O)N1CCc2ccccc2C1 [Compound A15]
74%	236 to 238 °C	6100 nM	O=C(O)c1ccccc1-c1ccccc1-c1nc(-c2cnc3ccccc3c2)no1 [Compound B23]
11%	190 to 191 °C		O=C(O)c1ccccc1-c1ccccc1C(=O)Nc1ccncc1 [Compound A18]
13%	169 to 172 °C		CN(C(=O)c1ccccc1-c1ccccc1C(=O)O)c1ccccc1 [Compound A16]
97%	165 to 168 °C	250 nM	O=C(O)c1ccccc1-c1ccccc1-c1nc(-c2ccnc(Br)c2)no1 [Compound B15]

inhibition at 10 µM (human URAT1)	melting point	IC50 (human URAT1)	Structure (SMILES)
98%		170 nM	O=C(O)c1ccccc1-c1ccccc1-c1nc(-c2ccncc2Cl)no1 [Compound B21]
< 10%	118 to 120 °C		O=C(O)c1ccccc1-c1ccccc1C(=O)NCc1ccncc1 [Compound A17]
56%	150 to 153 °C		O=C(O)c1ccccc1-c1ccccc1-c1nc(-c2ccc(F)cc2)no1 [Compound B1]
91%	220 to 222 °C	2100 nM	Cc1ccc2c(c1)CCCN2C(=O)c1ccccc1-c1ccccc1C(=O)O [Compound A11]
75%	174 to 176 °C	3900 nM	O=C(O)c1ccccc1-c1ccccc1C(=O)N1CCOc2ccccc21 [Compound A2]
39%	173 to 175 °C		O=C(O)c1ccccc1-c1ccccc1-c1nc(-c2ccc(C(F)(F)F)cc2)no1 [Compound B2]
89%	258 to 259 °C	1100 nM	O=C(O)c1ccccc1-c1ccccc1-c1nc(-c2ccnc3ccccc23)no1 [Compound B22]
33%	237 to 239 °C		O=C(O)c1ccccc1-c1ccccc1-c1nnc(-c2ccncc2)o1 [Compound B30]
68%	154 to 157 °C		COc1ccc(-c2noc(-c3ccccc3-c3ccccc3C(=O)O)n2)cc1 [Compound B5]
96%	154 to 156 °C	420 nM	COc1cc(-c2noc(-c3ccccc3-c3ccccc3C(=O)O)n2)ccn1 [Compound B19]
85%	233 to 234 °C	2200 nM	O=C(O)c1ccccc1-c1ccccc1C(=O)N1CCCc2ccc(Cl)cc21 [Compound A9]
61%	148 to 150 °C		O=C(O)c1ccccc1-c1ccccc1-c1nc(-c2ccc(Br)cc2)no1 [Compound B4]
96%	188 to 190 °C	1300 nM	O=C(NS(=O)(=O)c1ccc(Br)cc1)c1ccccc1-c1ccccc1-c1nc(-c2ccncc2Cl)no1 [Compound B27]
72%	215 to 217 °C		O=C(O)c1ccccc1-c1ccccc1C(=O)N1CCCCc2ccccc21 [Compound A5]
90%	98 to 100 °C	980 nM	O=C(O)c1ccccc1-c1ccccc1-c1nc(-c2ccnc(F)c2)no1 [Compound B17]
55%	154 to 156 °C		O=C(O)c1ccccc1-c1ccccc1-c1nc(-c2ccc(Cl)cc2)no1 [Compound B3]
67%	264 to 266 °C		O=C(O)c1ccccc1-c1ccccc1-c1nc(-c2ccc3ncccc3c2)no1 [Compound B24]
68%	140 to 142 °C		O=C(O)c1ccccc1-c1ccccc1-c1nc(-c2cccs2)no1 [Compound B9]
56%	171 to 175 °C		O=C(O)c1ccccc1-c1ccccc1-c1nc(-c2ccco2)no1 [Compound B8]
18%	258 to 260 °C		O=C(O)c1ccc(-c2ccccc2-c2nc(-c3ccncc3)no2)cc1 [Compound B29]
27%	190 to 193 °C		O=C(O)c1ccccc1-c1ccccc1-c1nc(-c2ccccn2)no1 [Compound B12]
89%		930 nM	O=C(O)c1ccccc1-c1ccccc1C(=O)N1CCCc2ccccc21 [Compound A1]
< 10%	100 to 102 °C		O=C(O)c1ccccc1-c1cccc(C(=O)N2CCCc3ccccc32)c1 [Compound A21]
